In US20260285850A1, “SUBSTITUTED OXAZOLIDINONES AND IMIDAZOLINONES AS HERBICIDES” (FMC CORPORATION, priority 2023, published 2026):

Columns and labels:
Format in all cases: in vivo
[1] = test system: sedge, umbrella (small-flower umbrella sedge, Cyperus difformis); test: Test B flooded paddy test, visual plant response rating 0-100; conditions: 250 g ai/ha, Flood, applied to paddy water, evaluated after 13 days
Summary of the method: (§1)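 Treatment occurs at the 2-leaf stage by adding compound to floodwater standing 3 cm above the soil, a level kept for the whole test. Plants stay in the greenhouse 13 days before visual comparison with controls.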

[2] = test system: ducksalad (Heteranthera limosa); test: as above; conditions: 250 g ai/ha, Flood, applied to paddy water, evaluated after 13 days
Summary of the method: as §1

[3] = test system: barnyardgrass (Echinochloa crusgalli); test: as above; conditions: 250 g ai/ha, Flood, applied to paddy water, evaluated after 13 days
Summary of the method: as §1

rice (Oryza sativa) = test: as above; conditions: 250 g ai/ha, Flood, applied to paddy water, evaluated after 13 days
Summary of the method: as §1

[4] = test system: oat, wild (wild oat, Avena fatua); test: Test A postemergence application, visual injury rating 0-100
Summary of the method: (§2)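 Rating: visual, day 10, untreated plants as reference, 0 no effect to 100 full control. Plants were in loam-sand and were treated either preemergence via directed soil spray or postemergence at the one- to two-leaf stage.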

soybean (Glycine max) [5] = test: as above
Summary of the method: as §2

corn (Zea mays) [6] = test: as above
Summary of the method: as §2

[7] = test system: palmer (palmer amaranth, palmer pigweed, Amaranthus palmeri); test: as above
Summary of the method: as §2

[8] = test system: galium (catchweed bedstraw, Galium aparine); test: as above
Summary of the method: as §2

[9] = test system: green foxtail (Setaria viridis); test: as above
Summary of the method: as §2

[10] = test system: ragweed (common ragweed, Ambrosia artemisiifolia); test: as above
Summary of the method: as §2

[11] = test system: ryegrass, Italian (italian ryegrass, Lolium multiflorum); test: as above
Summary of the method: as §2

[12] = test system: wheat (Triticum aestivum); test: as above
Summary of the method: as §2

[13] = test system: blackgrass (Alopecurus myosuroides); test: as above
Summary of the method: as §2

kochia (Bassia scoparia) [14] = test: as above
Summary of the method: as §2

[15] = test system: barnyardgrass (Echinochloa crus-galli); test: as above
Summary of the method: as §2

[16] = test system: oat, wild (wild oat, Avena fatua); test: Test A preemergence soil spray, visual injury rating 0-100; conditions: 10 days
Summary of the method: as §2

soybean (Glycine max) [17] = test: as above; conditions: 10 days
Summary of the method: as §2

corn (Zea mays) [18] = test: as above; conditions: 10 days
Summary of the method: as §2

[19] = test system: palmer (palmer amaranth, palmer pigweed, Amaranthus palmeri); test: as above; conditions: 10 days
Summary of the method: as §2

[20] = test system: green foxtail (Setaria viridis); test: as above; conditions: 10 days
Summary of the method: as §2

[21] = test system: ragweed (common ragweed, Ambrosia artemisiifolia); test: as above; conditions: 10 days
Summary of the method: as §2

[22] = test system: ryegrass, Italian (italian ryegrass, Lolium multiflorum); test: as above; conditions: 10 days
Summary of the method: as §2

[23] = test system: wheat (Triticum aestivum); test: as above; conditions: 10 days
Summary of the method: as §2

[24] = test system: blackgrass (Alopecurus myosuroides); test: as above; conditions: 10 days
Summary of the method: as §2

kochia (Bassia scoparia) [25] = test: as above; conditions: 10 days
Summary of the method: as §2

[26] = test system: barnyardgrass (Echinochloa crus-galli); test: as above; conditions: 10 days
Summary of the method: as §2

[27] = 62 g ai/ha, postemergence, 10 days, 0 = no effect, 100 = complete control
[28] = Postemergence, 16 g ai/ha, greenhouse 10 days, 0 no effect, 100 complete control
[29] = 62 g ai/ha, 0 = no effect, 100 = complete control

SMILES: COC(=O)C1=CCC(NC(=O)C2(C)CN(c3cc(F)c(F)c(F)c3)C(=O)O2)C1 (mixture of isomers) [Compound 163]
- Plant response rating, Sedge, Umbrella (0 to 100 scale, 0 is no effect and 100 is complete control) [1]: 85
- Plant response rating, Ducksalad (0 to 100 scale, 0 is no effect and 100 is complete control) [2]: 85
- Plant response rating, Barnyardgrass (0 to 100 scale, 0 is no effect and 100 is complete control) [3]: 55
- Plant response rating, Rice (0 to 100 scale, 0 is no effect and 100 is complete control) (rice (Oryza sativa)): 60
- Oat, Wild plant response rating (0-100) [4, 27]: 90
- Oat, Wild plant response rating (0 to 100 scale) [4, 28]: 30
- Soybean plant response rating (0-100) (soybean (Glycine max) [5]; [27]): 70
- Soybean plant response rating (0 to 100 scale) (soybean (Glycine max) [5]; [28]): 50
- Corn plant response rating (0-100) (corn (Zea mays) [6]; [27]): 100
- Corn plant response rating (0 to 100 scale) (corn (Zea mays) [6]; [28]): 90
- Pigweed, Palmer plant response rating (0-100) [7, 27]: 80
- Pigweed, Palmer plant response rating (0 to 100 scale) [7, 28]: 10
- Galium plant response rating (0-100) [8, 27]: 70
- Galium plant response rating (0 to 100 scale) [8, 28]: 40
- Foxtail, Green plant response rating (0-100) [9, 27]: 90
- Foxtail, Green plant response rating (0 to 100 scale) [9, 28]: 50
- Ragweed plant response rating (0-100) [10, 27]: 0
- Ragweed plant response rating (0 to 100 scale) [10, 28]: 0
- Ryegrass, Italian plant response rating (0-100) [11, 27]: 80
- Ryegrass, Italian plant response rating (0 to 100 scale) [11, 28]: 60
- Wheat plant response rating (0-100) [12, 27]: 70
- Wheat plant response rating (0 to 100 scale) [12, 28]: 30
- Blackgrass plant response rating (0-100) [13, 27]: 70
- Blackgrass plant response rating (0 to 100 scale) [13, 28]: 20
- Kochia plant response rating (0-100) (kochia (Bassia scoparia) [14]; [27]): 90
- Kochia plant response rating (0 to 100 scale) (kochia (Bassia scoparia) [14]; [28]): 20
- Barnyardgrass plant response rating (0-100) [15, 27]: 100
- Barnyardgrass plant response rating (0 to 100 scale) [15, 28]: 70
- Oat, Wild plant response rating ([16]; 16 g ai/ha, 0 to 100 scale): 0
- Oat, Wild plant response rating (0-100) [16, 29]: 20
- Soybean plant response rating (soybean (Glycine max) [17]; 16 g ai/ha, 0 to 100 scale): 0
- Soybean plant response rating (0-100) (soybean (Glycine max) [17]; [29]): 0
- Corn plant response rating (corn (Zea mays) [18]; 16 g ai/ha, 0 to 100 scale): 0
- Corn plant response rating (0-100) (corn (Zea mays) [18]; [29]): 70
- Pigweed, Palmer plant response rating ([19]; 16 g ai/ha, 0 to 100 scale): 0
- Pigweed, Palmer plant response rating (0-100) [19, 29]: 0
- Foxtail, Green plant response rating ([20]; 16 g ai/ha, 0 to 100 scale): 0
- Foxtail, Green plant response rating (0-100) [20, 29]: 20
- Ragweed plant response rating ([21]; 16 g ai/ha, 0 to 100 scale): 0
- Ragweed plant response rating (0-100) [21, 29]: 10
- Ryegrass, Italian plant response rating ([22]; 16 g ai/ha, 0 to 100 scale): 0
- Ryegrass, Italian plant response rating (0-100) [22, 29]: 80
- Wheat plant response rating ([23]; 16 g ai/ha, 0 to 100 scale): 20
- Wheat plant response rating (0-100) [23, 29]: 80
- Blackgrass plant response rating ([24]; 16 g ai/ha, 0 to 100 scale): 0
- Blackgrass plant response rating (0-100) [24, 29]: 0
- Kochia plant response rating (kochia (Bassia scoparia) [25]; 16 g ai/ha, 0 to 100 scale): 0
- Kochia plant response rating (0-100) (kochia (Bassia scoparia) [25]; [29]): 0
- Barnyardgrass plant response rating ([26]; 16 g ai/ha, 0 to 100 scale): 0
- Barnyardgrass plant response rating (0-100) [26, 29]: 20
